# Biological target: T1, Recombinant human TPH1 (MBP tagged) (Homo sapiens, UniProt P17752)
# T1 construct: cloning full length human TPH1 cDNA in to a bacterial pMAL-c5E expression vector; made in house; host or cells: E. coli BL21 (DE3)
# T1 sequence (P17752 1-444): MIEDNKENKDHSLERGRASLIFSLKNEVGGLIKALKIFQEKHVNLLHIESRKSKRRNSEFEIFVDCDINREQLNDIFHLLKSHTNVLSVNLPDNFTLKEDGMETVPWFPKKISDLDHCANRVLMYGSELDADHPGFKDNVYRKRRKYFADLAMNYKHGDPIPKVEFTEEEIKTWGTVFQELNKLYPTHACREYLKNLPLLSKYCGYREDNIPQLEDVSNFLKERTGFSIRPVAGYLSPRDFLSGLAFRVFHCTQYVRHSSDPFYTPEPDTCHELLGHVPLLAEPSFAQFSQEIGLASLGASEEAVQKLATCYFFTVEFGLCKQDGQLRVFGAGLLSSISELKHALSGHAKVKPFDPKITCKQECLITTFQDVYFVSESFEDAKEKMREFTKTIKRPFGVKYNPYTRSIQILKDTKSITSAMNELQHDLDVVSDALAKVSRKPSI
# Assay: TPH1 in vitro inhibition assay (kinetic fluorescence)
# Format: biochemical
# Conditions: TPH1 Range (TPH1 inhibition IC50)
# Description: Recombinant human TPH1 (rTPH1 GenBank™ accession no. NP_004179) was expressed by cloning full length human TPH1 cDNA in to a bacterial pMAL-c5E expression vector to produce maltose-binding protein (MBP) TPH1 fusion proteins. E. coli BL21 (DE3) containing pMAL-c5E-TPH1 was used for protein generation and the recombinant protein was purified utilizing standard column chromatography techniques. The MBP tagged TPH1 (MBP-TPH1) was used directly to screen compounds as described below. Recombinant human TPH2 (rTPH2 GenBank™ accession no. 173353), PheOH (rPheOH GenBank™ accession no. K03020) and TH (rTH GenBank™ accession no. L20679) with an MBP tag were produced similarly.
# TPH1 activities were measured in an assay containing 200 mM ammonium sulfate, 7 mM DTT, 50 μg/mL catalase, 25 μM ammonium iron sulfate, 50 mM MES, pH 7.1. Test compounds were diluted in 100% DMSO and added to the assay plate in 1 μL aliquots at 100× final concentration. Fifty microliters of assay buffer containing 30 nM TPH1 enzyme (MBP tagged) were added to the plate wells containing the test compound by the use of an Eppendorf repeater pipette. The reaction was initiated by the addition of 50 μL of assay buffer containing 60 μM tryptophan and 72 μM 6-6-methyltetra-hydropterin (2× final concentration) by the use of a Multidrop (LabSystems). Final reaction conditions were 15 nM TPH1 enzyme, 30 μM tryptophan, 36 μM 6-methyltetra-hydropterin, 200 mM ammonium sulfate, 7 mM DTT, […], 25 μM ferrous ammonium sulfate, 50 mM MES, pH 7.1, with atmospheric oxygen at room temperature. The plate was immediately placed onto an M5 plate reader (Molecular Devices) for kinetic fluorescence measurement using an excitation setting of 300 nm and an emission setting of 335 nm. Fluorescence reads are recorded in kinetic mode for 300 seconds (5 minutes).
# Kinetic assay data for compounds at specific concentrations was translated into slopes using the Softmax Pro software on a Spectramax reader, and compound inhibition slopes were compared with wells containing enzyme, substrate and cofactor in the absence of inhibitor (100%), and wells containing substrate and cofactor in the absence of enzyme (0%). DMSO concentration in the assay was 1%. […] IC50's were determined using Graphpad Prism.
row,SMILES,IC50 [nM]
1,"CC(C)(C)c1cccc(-c2cc(Cl)ccc2[C@@H](Oc2cc(N3CCC4(CC3)CN[C@H](C(=O)O)C4)nc(N)n2)C(F)(F)F)c1 [Example 34bq, (S)-8-(2-amino-6-((R)-1-(3′-(tert-butyl)-5-chloro-[1,1′-biphenyl]-2-yl)-2,2,2-trifluoroethoxy)pyrimidin-4-yl)-2,8-diazaspiro[4.5]decane-3-carboxylic acid]",50 to 300

# Same assay, conditions: read-out: TPH1 Range (TPH1 inhibition IC50)
row,SMILES,IC50 [nM]
1,"COc1cccc(-c2ccc([C@@H](Oc3cc(N4CCC5(CC4)CN[C@H](C(=O)O)C5)nc(N)n3)C(F)(F)F)cc2)c1F [Example 55bm, (S)-8-(2-amino-6-((R)-2,2,2-trifluoro-1-(2′-fluoro-3′-methoxy-[1,1′-biphenyl]-4-yl)ethoxy)pyrimidin-4-yl)-2,8-diazaspiro[4.5]decane-3-carboxylic acid]",300 to 3000
2,"Cc1ccn(-c2cc(-c3cccc(OC(F)(F)F)c3)ccc2[C@@H](Oc2cc(N3CCC4(CC3)CN[C@H](C(=O)O)C4)nc(N)n2)C(F)(F)F)n1 [Example 1as, (S)-8-(2-amino-6-((R)-2,2,2-trifluoro-1-(3-(3-methyl-1H-pyrazol-1-yl)-3'-(trifluoromethoxy)-[1,1′-biphenyl]-4-yl)ethoxy)pyrimidin-4-yl)-2,8-diazaspiro[4.5]decane-3-carboxylic acid]",< 50
3,"CN(C)C(=O)c1ccc(-c2ccc([C@@H](Oc3cc(N4CCC5(CC4)CN[C@H](C(=O)O)C5)nc(N)n3)C(F)(F)F)cc2)cc1 [Example 55bw, (S)-8-(2-amino-6-((R)-1-(4′-(dimethylcarbamoyl)-[1,1′-biphenyl]-4-yl)-2,2,2-trifluoroethoxy)pyrimidin-4-yl)-2,8-diazaspiro[4.5]decane-3-carboxylic acid]",50 to 300
4,"Nc1nc(NCc2ccc(-c3ccccc3)cc2)nc(N2CCC3(CC2)CNC(C(=O)O)C3)n1 (stereo not shown) [Example 39b, 8-(4-(([1,1′-biphenyl]-4-ylmethyl)amino)-6-amino-1,3,5-triazin-2-yl)-2,8-diazaspiro[4.5]decane-3-carboxylic acid]",3000 to 10000
5,"CC(C)Oc1cccc(-c2ccc([C@@H](Oc3cc(N4CCC5(CC4)CN[C@H](C(=O)O)C5)nc(N)n3)C(F)(F)F)cc2)c1 [Example 55av, (S)-8-(2-amino-6-((R)-2,2,2-trifluoro-1-(3′-isopropoxy-[1,1′-biphenyl]-4-yl)ethoxy)pyrimidin-4-yl)-2,8-diazaspiro[4.5]decane-3-carboxylic acid]",50 to 300
6,"CC(=O)N1CC=C(c2ccc([C@@H](Oc3cc(N4CCC5(CC4)CN[C@H](C(=O)O)C5)nc(N)n3)C(F)(F)F)c(-n3ccc(C)n3)c2)CC1 [Example 1k, (S)-8-(6-((R)-1-(4-(1-acetyl-1,2,3,6-tetrahydropyridin-4-yl)-2-(3-methyl-1H-pyrazol-1-yl)phenyl)-2,2,2-trifluoroethoxy)-2-aminopyrimidin-4-yl)-2,8-diazaspiro[4.5]decane-3-carboxylic acid]",< 50
7,"CC(Nc1cc(N2CCC3(CC2)CN[C@H](C(=O)O)C3)nc(N)n1)C12CC3CC(CC(C3)C1)C2 (stereo partly drawn) [Example 41d, (3S)-8-(6-((1-((1R,3S,5S)-adamantan-1-yl)ethyl)amino)-2-aminopyrimidin-4-yl)-2,8-diazaspiro[4.5]decane-3-carboxylic acid]",3000 to 10000
8,"Nc1nc(O[C@H](c2ccc(-c3c(F)cccc3F)cc2)C(F)(F)F)cc(N2CCC3(CC2)CN[C@H](C(=O)O)C3)n1 [Example 55cf, (S)-8-(2-amino-6-((R)-1-(2′,6′-difluoro-[1,1′-biphenyl]-4-yl)-2,2,2-trifluoroethoxy)pyrimidin-4-yl)-2,8-diazaspiro[4.5]decane-3-carboxylic acid]",3000 to 10000
9,"Cc1ccn(-c2ccc(-c3ccc(CO)cc3)cc2[C@@H](Oc2cc(N3CCC4(CC3)CN[C@H](C(=O)O)C4)nc(N)n2)C(F)(F)F)n1 [Example 19r, (S)-8-(2-amino-6-((R)-2,2,2-trifluoro-1-(4′-(hydroxymethyl)-4-(3-methyl-1H-pyrazol-1-yl)-[1,1′-biphenyl]-3-yl)ethoxy)pyrimidin-4-yl)-2,8-diazaspiro[4.5]decane-3-carboxylic acid]",< 50
10,"Cc1ccn(-c2ccc(-c3ccc(Cl)c(Cl)c3)cc2[C@@H](Oc2cc(N3CCC4(CC3)CN[C@H](C(=O)O)C4)nc(N)n2)C(F)(F)F)n1 [Example 19p, (S)-8-(2-amino-6-((R)-1-(3′,4′-dichloro-4-(3-methyl-1H-pyrazol-1-yl)-[1,1′-biphenyl]-3-yl)-2,2,2-trifluoroethoxy)pyrimidin-4-yl)-2,8-diazaspiro[4.5] decane-3-carboxylic acid]",< 50
11,"Nc1nc(O[C@H](c2ccc(-c3ccc(C(=O)NCCN4CCOCC4)cc3)cc2)C(F)(F)F)cc(N2CCC3(CC2)CN[C@H](C(=O)O)C3)n1 [Example 55dh, (S)-8-(2-amino-6-((R)-2,2,2-trifluoro-1-(4′-((2-morpholinoethyl)carbamoyl)-[1,1′-biphenyl]-4-yl)ethoxy)pyrimidin-4-yl)-2,8-diazaspiro[4.5]decane-3-carboxylic acid]",50 to 300
12,"C=Cc1ccc(-n2ccc(C)n2)c([C@@H](Oc2cc(N3CCC4(CC3)CN[C@H](C(=O)O)C4)nc(N)n2)C(F)(F)F)c1 [Example 19a, (S)-8-(2-amino-6-((R)-2,2,2-trifluoro-1-(2-(3-methyl-1H-pyrazol-1-yl)-5-vinylphenyl)ethoxy)pyrimidin-4-yl)-2,8-diazaspiro[4.5]decane-3-carboxylic acid]",< 50
13,"CS(=O)(=O)c1cccc(-c2cc(Cl)ccc2COc2cc(N3CCC4(CC3)CN[C@H](C(=O)O)C4)nc(N)n2)c1 [Example 62, (S)-8-(2-amino-6-((5-chloro-3′-(methylsulfonyl)-[1,1′-biphenyl]-2-yl)methoxy)pyrimidin-4-yl)-2,8-diazaspiro[4.5]decane-3-carboxylic acid]",50 to 300
14,"CCOC(=O)c1ccc([C@@H](Oc2cc(N3CCC4(CC3)CN[C@H](C(=O)O)C4)nc(N)n2)C(F)(F)F)c(-n2ccc(C)n2)c1 [Example 17, (S)-8-(2-amino-6-((R)-1-(4-(ethoxycarbonyl)-2-(3-methyl-H-pyrazol-1-yl)phenyl)-2,2,2-trifluoroethoxy)pyrimidin-4-yl)-2,8-diazaspiro[4.5]decane-3-carboxylic acid]",< 50
15,"CCCCOC(=O)c1ccc([C@@H](Oc2cc(N3CCC4(CC3)CN[C@H](C(=O)O)C4)nc(N)n2)C(F)(F)F)c(-n2ccc(C)n2)c1 [Example 18c, (S)-8-(2-amino-6-((R)-1-(4-(butoxycarbonyl)-2-(3-methyl-1H-pyrazol-1-yl)phenyl)-2,2,2-trifluoroethoxy)pyrimidin-4-yl)-2,8-diazaspiro[4.5]decane-3-carboxylic acid]",< 50
16,"Cc1ccn(-c2ccc(-c3ccc(C)c(CO)c3)cc2[C@@H](Oc2cc(N3CCC4(CC3)CN[C@H](C(=O)O)C4)nc(N)n2)C(F)(F)F)n1 [Example 19m, (S)-8-(2-amino-6-((R)-2,2,2-trifluoro-1-(3′-(hydroxymethyl)-4′-methyl-4-(3-methyl-1H-pyrazol-1-yl)-[1,1′-biphenyl]-3-yl)ethoxy)pyrimidin-4-yl)-2,8-diazaspiro[4.5]decane-3-carboxylic acid]",< 50
17,"Nc1nc(O[C@H](c2ccc(Cl)cc2-c2ccc(F)cc2)C(F)(F)F)cc(N2CCC3(CC2)CN[C@H](C(=O)O)C3)n1 [Example 34bv, (S)-8-(2-amino-6-((R)-1-(5-chloro-4′-fluoro-[1,1′-biphenyl]-2-yl)-2,2,2-trifluoroethoxy)pyrimidin-4-yl)-2,8-diazaspiro[4.5]decane-3-carboxylic acid]",50 to 300
18,"CC(C)Oc1ccc(-c2ccc([C@@H](Oc3cc(N4CCC5(CC4)CN[C@H](C(=O)O)C5)nc(N)n3)C(F)(F)F)c(N3CCOCC3)c2)cc1 [Example 36f, (S)-8-(2-amino-6-((R)-2,2,2-trifluoro-1-(4′-isopropoxy-3-morpholino-[1,1′-biphenyl]-4-yl)ethoxy)pyrimidin-4-yl)-2,8-diazaspiro[4.5]decane-3-carboxylic acid]",50 to 300
